Legend:
[1] = tested on: mice, apomorphine-induced stereotypy climbing; assay: Apomorphine-induced stereotypy behaviors; format: in vivo, mouse; conditions: 3 mg/kg i.p., apomorphine 1 mg/kg s.c.
Description: The mouse was placed into a lidded cylindrical cage (diameter: 12 cm; height: 14 cm) made with 1 cm-separated metal grids for 1 hour's habituation. Then, the mouse received apomorphine (1 mg/kg, s.c.) Injection. The behaviors of the mouse were videotaped, and the stereotypy behaviors were scored every 5 min for 1 min, starting from 15 min before apomorphine injection until 60 min after injection.
The stereotypy behaviors induced by apomorphine were scored by reference to a previous report (Park et al. 2003) with modifications as the followings: 0: normal behaviors (sleeping, normal sniffing); 1: increased activity and sniffing (grooming, rearing, paw licking, jumping); 2: occasional clinging to the side wall of the cage with forepaws; 3: intermittent clinging to the top lid of the cage with all four paws; 4: uninterrupted climbing with all four paws to the top lid. The highest rating score during the 1 min-recording period was counted.

mice, step-down latency = assay: Sedation assessment; format: in vivo, mouse; conditions: 3 mg/kg i.p.
Description: The degree of sedation was measured by the latency for a mouse to completely step down from a slightly (3 cm) raised plastic platform (11×8 cm) by reference to a previous report (Horan et al. 1991). The mouse was placed on the platform 15 min after receiving i.p. Injection of the tested drug. The latency (in sec) for the mouse to step down the platform with all four paws was recorded. The baseline latency of each mouse before drug treatment was measured and, if longer than 15 sec, the mouse was discarded from the study. A cut-off time of 60 sec was taken as the maximal sedative effect. The percentage of sedation was calculated by the formula: sedation %=(test latency−baseline latency)/(60−baseline latency)×100%.

mice, elevated plus maze = assay: Elevated plus maze (EPM) test; format: in vivo, mouse; conditions: 3 mg/kg or 10 mg/kg i.p., 10 min before the tests
Description: The epm test was conducted in a plexiglas maze apparatus (San Diego Instruments, San Diego, Calif.), consisting of a central platform (5×5 cm) with four arms (30×5 cm); two open and two closed arms with 25 cm-high sidewalls. The maze is elevated 38.5 cm from the room's floor. The mouse was placed at the central platform of the maze facing one of open arms and its behaviors in the maze were video-recorded and analyzed every 5 min-test session by the ethovision video tracking system (noldus information technology, wageningen, netherlands). The time spent for each mouse in the open or closed arm or the central platform as well as the distances traveled in the open or closed arm were measured. The degree of anxiety was accessed by the ratio of the time spent or the distance traveled in two open arms in a 5 min-test session.

male Wistar rats = assay: Rotarod performance, pilot experiment; format: in vivo, rat; conditions: acute, dose range 10-55 mg/kg, 20 min after administration
α1,4,6β3δ receptors = molecular target: T1, α1,4,6β3δ receptors (Rattus norvegicus, UniProt P30191+P63079); assay: Electrophysiology in Xenopus oocytes, delta-containing receptors; format: cell-based; conditions: measured at EC20
T1 construct: expressed in transfected cells; host or cells: Xenopus laevis oocytes injected with subunit mRNA (3:1:5)
Description: Mature female Xenopus laevis (Nasco, Fort Atkinson, Wis., USA) were anaesthetized in a bath of ice-cold 0.17% Tricain (Ethyl-m-aminobenzoat, Sigma-Aldrich, St. Louis, Mo., USA) before decapitation and transfer of the frog's ovary to ND96 medium (96 mM NaCl, 2 mM KCl, 1 mM MgCl2, 5 mM HEPES; pH 7.5). Following incubation in 1 mg/mL collagenase (Sigma-Aldrich, St. Louis, Mo., USA) for 30 min, stage 5 to 6 oocytes were singled out of the ovary and defolliculated using a platinum wire loop. Oocytes were stored and incubated at 18° C. in NDE medium (96 mM NaCl, 2 mM KCl, 1 mM MgCl2, 5 mM HEPES, 1.8 mM CaCl2; pH 7.5) that was supplemented with 100 U per mL-1 penicillin, 100 μg per mL-1 streptomycin and 2.5 mM pyruvate. Oocytes were injected with an aqueous solution of mRNA. A total of 2.5 ng of mRNA per oocyte was injected. Subunit ratio was 1:1:5 for αxβγ2 (x=1, 2, 3, 5) and 3:1:5 for α4/6β3γ2 and αβδ receptors. Injected oocytes were incubated for at least 36 h before electrophysiological recordings. Oocytes were placed on a nylon-grid in a bath of NDE medium. For current measurements, the oocytes were impaled with two microelectrodes (2-3MΩ), which were filled with 2 M KCl. The oocytes were constantly washed by a flow of 6 mL per min-1 NDE that could be switched to NDE containing GABA and/or drugs. […] All recordings were performed at room temperature at a holding potential of −60 mV using a Warner OC-725C TEV (Warner Instrument, Hamden, Conn., USA) or a Dagan CA-1B Oocyte Clamp or a Dagan TEV-200A TEV (Dagan Corporation, Mineapolis, Minn., USA). Data were digitized using a Digidata 1322A or 1550 data acquisition system (Axon Instruments, Union City, Calif., USA), recorded using Clampex 10.5 software (Molecular Devices, Sunnyvale, Calif., USA), and analyzed using Clampfit 10.5 and GraphPad Prism 6.0 (La Jolla, Calif., USA) software. Concentration-response data were fitted using the Hill equation. Data are given as mean±SEM from at least three oocytes of two batches.
For selected test compounds full dose response curves were recorded in α1-6β3γ2 receptors. For selected compounds, dose response curves in additional receptor subtypes (α1, 4, 6β3δ, α6β1, 2γ2, α1-6β3) were also obtained. For a wider panel of compounds, a two point screening pharmacology was obtained at 1 and 10 μM compound concentrations.

T1 sequence (P30191 20-453): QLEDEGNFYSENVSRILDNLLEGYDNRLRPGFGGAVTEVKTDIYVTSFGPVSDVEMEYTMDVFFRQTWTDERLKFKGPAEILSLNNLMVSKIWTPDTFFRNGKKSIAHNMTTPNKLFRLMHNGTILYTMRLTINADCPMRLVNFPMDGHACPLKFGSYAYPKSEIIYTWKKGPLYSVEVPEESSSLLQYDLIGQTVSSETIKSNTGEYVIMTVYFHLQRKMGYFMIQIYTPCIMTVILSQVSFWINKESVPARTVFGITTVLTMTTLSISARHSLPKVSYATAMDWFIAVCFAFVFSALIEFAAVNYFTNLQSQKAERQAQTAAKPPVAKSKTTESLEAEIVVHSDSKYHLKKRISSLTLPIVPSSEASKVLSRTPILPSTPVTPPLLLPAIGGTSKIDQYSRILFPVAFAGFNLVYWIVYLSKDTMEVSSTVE
T1 sequence (P63079 26-473): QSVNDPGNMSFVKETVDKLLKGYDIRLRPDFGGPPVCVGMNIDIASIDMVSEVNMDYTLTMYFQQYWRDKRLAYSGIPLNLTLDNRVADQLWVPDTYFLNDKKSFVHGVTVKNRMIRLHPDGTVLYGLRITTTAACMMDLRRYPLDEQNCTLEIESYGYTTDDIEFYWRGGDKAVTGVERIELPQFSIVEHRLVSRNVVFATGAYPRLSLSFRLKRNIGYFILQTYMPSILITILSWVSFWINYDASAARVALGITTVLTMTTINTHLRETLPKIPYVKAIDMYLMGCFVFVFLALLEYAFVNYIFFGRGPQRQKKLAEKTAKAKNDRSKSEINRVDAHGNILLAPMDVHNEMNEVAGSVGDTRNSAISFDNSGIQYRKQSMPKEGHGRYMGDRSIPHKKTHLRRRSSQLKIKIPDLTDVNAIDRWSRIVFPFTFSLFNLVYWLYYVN
T1 sequence (P18506 25-449 partner): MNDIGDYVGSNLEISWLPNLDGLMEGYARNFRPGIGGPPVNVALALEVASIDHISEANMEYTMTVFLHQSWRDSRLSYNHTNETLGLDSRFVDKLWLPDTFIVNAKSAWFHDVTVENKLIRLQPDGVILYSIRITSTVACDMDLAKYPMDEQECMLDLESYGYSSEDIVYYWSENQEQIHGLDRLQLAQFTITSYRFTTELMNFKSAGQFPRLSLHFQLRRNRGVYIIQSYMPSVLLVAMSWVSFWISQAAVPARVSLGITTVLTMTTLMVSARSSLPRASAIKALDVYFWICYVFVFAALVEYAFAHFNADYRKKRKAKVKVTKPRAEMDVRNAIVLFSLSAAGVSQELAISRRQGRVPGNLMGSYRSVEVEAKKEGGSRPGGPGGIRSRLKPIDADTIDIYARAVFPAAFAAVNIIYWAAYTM

SMILES: COc1ccc(-n2nc3c4ccc(OC)cc4[nH]cc-3c2=O)cc1 [Compound 6, 7-Methoxy-2-(4-methoxyphenyl)-2,5-dihydro-3H-pyrazolo[4,3-c]quinolin-3-one]
- stereotypy climbing behaviors induced by apomorphine [1]: did not affect
- sedation (mice, step-down latency): neither displayed any significant sedation
- anxiolytic activity (mice, elevated plus maze): neither displayed any significant

SMILES: [2H]C([2H])([2H])Oc1ccc(-n2nc3c4ccc(OC)cc4[nH]cc-3c2=O)cc1 [DK-I-56-1, 7-Methoxy-2-(4-methoxy-d3-phenyl)-2,5-dihydro-3H-pyrazolo[4,3-c]quinolin-3-one]
- rotarod performance (male Wistar rats): did not impair

SMILES: [2H]C([2H])([2H])Oc1ccc2c3nn(-c4ccc(OC)nc4)c(=O)c-3c[nH]c2c1 [DK-I-86-1, 7-Methoxy-d3-2-(6-methoxypyridin-3-yl)-2,5-dihydro-3H-pyrazolo[4,3-c]quinolin-3-one]
- Receptor potentiation in the α6β3δ receptor (α1,4,6β3δ receptors): modulated

Reference: US10865203B2, “Ligands selective to alpha 6 subunit-containing GABAA receptors and their methods of use” (UWM Research Foundation, Inc., priority 2015, dated 2020)
